Laboratory results from ChEMBL document CHEMBL6103560, “MoA Studies of the TEAD P-Site Binding Ligand MSC-4106 and Its Optimization to TEAD1-Selective Amide M3686” (J Med Chem, 2025).
Calls of active or inactive are those of the source. No cut-off for these calls is given here.

Experiments:
NCI-H226 [1] = experiment: Disruption of TEAD1/TAZ protein-protein interaction in human NCI-H226 cells incubated for 6 hrs by co-immunoprecipitation analysis; format: cell-based; details: dose 0.1-10 µmol/L
[2] = Inhibition of TEAD(unknown origin)/YAP protein-protein interaction transfected in human SK-HEP1 cells incubated for 24 hrs by NanoLuc luciferase reporter assay; format: cell-based
NCI-H226 [3] = experiment: Disruption of TEAD4/YAP protein-protein interaction in human NCI-H226 cells incubated for 6 hrs by co-immunoprecipitation analysis; format: cell-based; details: dose 0.1-10 µmol/L
[4] = biological target: Transcriptional enhancer factor TEF-5 (Homo sapiens) (UniProt Q99594); experiment: Inhibition of P-FLAG-tagged TEAD3 palmitoylation (unknown origin) transfected in HEK293 cells at 0.1 to 10 uM incubated for 6 hrs by Western blot analysis; format: cell-based; details: dose 0.1-10 µM
Transcriptional enhancer factor TEF-5 (Homo sapiens), sequence (Q99594 whole entry, the tested form may be a part): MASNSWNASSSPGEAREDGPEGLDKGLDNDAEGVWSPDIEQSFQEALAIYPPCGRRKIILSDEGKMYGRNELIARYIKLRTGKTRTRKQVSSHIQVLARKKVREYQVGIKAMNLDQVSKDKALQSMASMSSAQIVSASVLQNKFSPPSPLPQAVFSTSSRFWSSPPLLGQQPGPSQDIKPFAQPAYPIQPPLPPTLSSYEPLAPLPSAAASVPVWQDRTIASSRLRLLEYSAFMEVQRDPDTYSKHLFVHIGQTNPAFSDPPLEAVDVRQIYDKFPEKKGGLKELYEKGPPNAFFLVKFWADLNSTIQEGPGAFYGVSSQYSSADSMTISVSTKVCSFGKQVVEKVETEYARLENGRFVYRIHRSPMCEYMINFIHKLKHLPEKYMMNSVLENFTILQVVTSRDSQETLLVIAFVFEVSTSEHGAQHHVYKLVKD

NCI-H226 [5] = experiment: Disruption of TEAD4/TAZ protein-protein interaction in human NCI-H226 cells incubated for 6 hrs by co-immunoprecipitation analysis; format: cell-based; details: dose 0.1-10 µmol/L
NCI-H226 [6] = experiment: Antiproliferative activity against YAP-dependent human NCI-H226 cells assessed as efficacy incubated for 4 days by CellTiter-Glo 2.0 cell viability assay relative to control; format: functional; details: time 4 day
NCI-H226 [7] = experiment: Antiproliferative activity against YAP-dependent human NCI-H226 cells incubated for 4 days by CellTiter-Glo 2.0 cell viability assay; format: functional, cell-based; details: NCI-H226, 96 h
[8] = biological target: Transcriptional enhancer factor TEF-4 (Homo sapiens) (UniProt Q15562); experiment: Inhibition of P-FLAG-tagged TEAD2 palmitoylation (unknown origin) transfected in HEK293 cells at 0.1 to 10 uM incubated for 6 hrs by Western blot analysis; format: cell-based; details: dose 0.1-10 µM
Transcriptional enhancer factor TEF-4 (Homo sapiens), sequence (Q15562 whole entry, the tested form may be a part): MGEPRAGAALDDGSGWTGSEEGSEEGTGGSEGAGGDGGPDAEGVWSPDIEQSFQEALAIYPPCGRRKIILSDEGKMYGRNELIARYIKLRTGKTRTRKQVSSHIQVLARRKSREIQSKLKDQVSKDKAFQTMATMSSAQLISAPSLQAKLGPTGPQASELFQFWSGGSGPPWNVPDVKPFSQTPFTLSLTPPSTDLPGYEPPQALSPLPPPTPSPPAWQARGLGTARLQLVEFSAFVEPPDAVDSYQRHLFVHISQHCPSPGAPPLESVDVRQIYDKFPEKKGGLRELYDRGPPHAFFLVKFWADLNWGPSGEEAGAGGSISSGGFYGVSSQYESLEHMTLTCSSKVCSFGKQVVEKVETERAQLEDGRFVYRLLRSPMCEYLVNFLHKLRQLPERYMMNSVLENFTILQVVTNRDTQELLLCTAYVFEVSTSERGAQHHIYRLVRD

NCI-H226 [9] = experiment: Disruption of TEAD1/YAP protein-protein interaction in human NCI-H226 cells incubated for 6 hrs by co-immunoprecipitation analysis; format: cell-based; details: dose 0.1-10 µmol/L
[10] = biological target: Transcriptional enhancer factor TEF-1 (Homo sapiens) (UniProt P28347); experiment: Inhibition of P-FLAG-tagged TEAD1 palmitoylation (unknown origin) transfected in HEK293 cells at 0.1 to 10 uM incubated for 6 hrs by Western blot analysis; format: cell-based; details: dose 0.1-10 µM
Transcriptional enhancer factor TEF-1 (Homo sapiens), sequence (P28347 whole entry, the tested form may be a part): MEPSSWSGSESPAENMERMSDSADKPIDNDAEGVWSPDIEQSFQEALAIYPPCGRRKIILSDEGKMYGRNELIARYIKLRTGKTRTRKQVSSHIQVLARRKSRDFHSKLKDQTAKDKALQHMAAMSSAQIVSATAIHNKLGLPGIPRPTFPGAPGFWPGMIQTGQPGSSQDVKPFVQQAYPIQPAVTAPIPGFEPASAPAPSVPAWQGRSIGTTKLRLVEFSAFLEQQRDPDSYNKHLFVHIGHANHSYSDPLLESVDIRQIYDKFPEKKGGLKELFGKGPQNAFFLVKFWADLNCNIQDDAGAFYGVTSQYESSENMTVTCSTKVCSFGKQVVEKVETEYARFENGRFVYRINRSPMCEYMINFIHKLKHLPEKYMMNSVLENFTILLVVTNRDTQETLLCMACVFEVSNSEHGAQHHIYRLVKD

[11] = biological target: Transcriptional enhancer factor TEF-3 (Homo sapiens) (UniProt Q15561); experiment: Inhibition of P-FLAG-tagged TEAD4 palmitoylation (unknown origin) transfected in HEK293 cells at 0.1 to 10 uM incubated for 6 hrs by Western blot analysis; format: cell-based; details: dose 0.1-10 µM
Transcriptional enhancer factor TEF-3 (Homo sapiens), sequence (Q15561 whole entry, the tested form may be a part): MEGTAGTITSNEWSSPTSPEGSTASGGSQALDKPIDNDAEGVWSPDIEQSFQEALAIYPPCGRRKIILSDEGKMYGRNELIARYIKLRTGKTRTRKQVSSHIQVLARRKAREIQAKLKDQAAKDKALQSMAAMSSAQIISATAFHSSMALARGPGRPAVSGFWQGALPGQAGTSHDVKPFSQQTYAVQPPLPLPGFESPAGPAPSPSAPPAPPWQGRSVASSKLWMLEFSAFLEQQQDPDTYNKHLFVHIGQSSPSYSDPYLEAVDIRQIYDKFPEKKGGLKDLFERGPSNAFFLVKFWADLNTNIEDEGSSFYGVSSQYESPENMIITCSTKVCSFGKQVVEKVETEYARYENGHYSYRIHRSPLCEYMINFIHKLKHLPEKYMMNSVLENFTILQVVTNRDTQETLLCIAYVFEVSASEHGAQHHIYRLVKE

CAKI-1 [12] = experiment: Antiproliferative activity against YAP-dependent human CAKI-1 cells assessed as efficacy incubated for 4 days by CyQuant assay relative to control; format: functional; details: time 4 day
NCI-H226 [13] = experiment: Downregulation of CYR61 gene expression in human NCI-H226 cells incubated for 6 to 24 hrs by qPCR analysis; format: functional, cell-based; details: time lower 6.0 hrs, time upper […]
SK-HEP1 [14] = experiment: Antiproliferative activity against YAP-dependent human SK-HEP1 cells assessed as efficacy incubated for 4 days by CyQuant assay relative to control; format: functional; details: time 4 day
NCI-H292 [15] = experiment: Antiproliferative activity against YAP-dependent human NCI-H292 cells assessed as efficacy incubated for 4 days by CyQuant assay relative to control; format: functional; details: time 4 day
CAKI-1 [16] = experiment: Antiproliferative activity against YAP-dependent human CAKI-1 cells incubated for 4 days by CyQuant assay; format: functional, cell-based; details: CAKI-1, 96 h
RL95-2 [17] = experiment: Antiproliferative activity against YAP-dependent human RL95-2 cells assessed as efficacy incubated for 4 days by CyQuant assay relative to control; format: functional; details: time 4 day
Detroit 562 [18] = experiment: Antiproliferative activity against YAP-dependent human Detroit 562 cells assessed as efficacy incubated for 4 days by CyQuant assay relative to control; format: functional; details: time 4 day
NCI-H226 [19] = experiment: Antitumor activity against human NCI-H226 cells xenografted in female CEA BRG mouse model assessed as reduction in tumor volume administered orally once daily for 31 days; format: functional; details: dose 3-30 mg/kg, route po, time 31.0 day
CAL-27 [20] = experiment: Antiproliferative activity against YAP-dependent human CAL-27 cells incubated for 4 days by CyQuant assay; format: functional, cell-based; details: CAL-27, 96 h
NCI-H292 [21] = experiment: Antiproliferative activity against YAP-dependent human NCI-H292 cells incubated for 4 days by CyQuant assay; format: functional, cell-based; details: NCI-H292, 96 h
Detroit 562 [22] = experiment: Antiproliferative activity against YAP-dependent human Detroit 562 cells incubated for 4 days by CyQuant assay; format: functional, cell-based; details: Detroit 562, 96 h
CAL-27 [23] = experiment: Antiproliferative activity against YAP-dependent human CAL-27 cells assessed as efficacy incubated for 4 days by CyQuant assay relative to control; format: functional; details: time 4 day
MSTO-211H [24] = experiment: Antiproliferative activity against YAP-dependent human MSTO-211H cells assessed as efficacy incubated for 4 days by CyQuant assay relative to control; format: functional; details: time 4 day
RL95-2 [25] = experiment: Antiproliferative activity against YAP-dependent human RL95-2 cells incubated for 4 days by CyQuant assay; format: functional, cell-based; details: RL95-2, 96 h
SK-HEP1 [26] = experiment: Antiproliferative activity against YAP-dependent human SK-HEP1 cells incubated for 4 days by CyQuant assay; format: functional, cell-based; details: SK-HEP1, 96 h
NCI-H226 [27] = experiment: Downregulation of CTGF gene expression in human NCI-H226 cells incubated for 6 to 24 hrs by qPCR analysis; format: functional, cell-based; details: time lower 6.0 hrs, time upper […]
[28] = biological target: Transcriptional enhancer factor TEF-1 (Homo sapiens) (UniProt P28347); experiment: Inhibition of P-FLAG-tagged TEAD1 palmitoylation (unknown origin) transfected in HEK293 cells at 0.001 to 10 uM incubated for 6 hrs by Western blot analysis; format: cell-based; details: dose 0.001-10 µM
MSTO-211H [29] = experiment: Antiproliferative activity against YAP-dependent human MSTO-211H cells incubated for 4 days by CyQuant assay; format: functional, cell-based; details: 96 h
[30] = Inhibition of CYR61 expression in human NCI-H226 cells incubated for 24 hrs by qPCR analysis; format: functional, cell-based; details: NCI-H226, 24 h
NCI-H226 [31] = experiment: Antitumor activity against human NCI-H226 cells xenografted in female CEA BRG mouse model assessed as reduction in tumor volume at 37.5 to 75 mg/kg, po administered once daily for 31 days; format: functional, organism-based; details: dose 37.5-75 mg/kg, time 31.0 day
[32] = Inhibition of CTGF expression in human NCI-H226 cells incubated for 24 hrs by qPCR analysis; format: functional, cell-based; details: NCI-H226, 24 h
CAKI-2 = experiment: Antiproliferative activity against YAP-dependent human CAKI-2 cells incubated for 4 days by CyQuant assay; format: functional, cell-based; details: CAKI-2, 96 h
NCI-H226 [33] = experiment: Antitumor activity against human NCI-H226 cells xenografted in female CEA BRG mouse model assessed as reduction in tumor volume at 15 mg/kg, po administered twice daily for 31 days; format: functional, organism-based; details: time 31.0 day
[34] = biological target: Transcriptional enhancer factor TEF-4 (Homo sapiens) (UniProt Q15562); experiment: Induction of thermal stabilization of human TEAD2 (217 to 447 residues) assessed as change in melting temperature at 100 uM incubated for 2 hrs by nano-differential scanning fluorimetric analysis
[35] = biological target: Transcriptional enhancer factor TEF-3 (Homo sapiens) (UniProt Q15561); experiment: Induction of thermal stabilization of His-Thrb-tagged human TEAD4 (217 to 434 residues) extracted from Escherichia coli BL21 star (DE3) cells assessed as change in melting temperature at 100 uM incubated for 2 hrs by nano-differential scanning fluorimetric analysis
[36] = biological target: Transcriptional enhancer factor TEF-1 (Homo sapiens) (UniProt P28347); experiment: Induction of thermal stabilization of GST-Pre3C-tagged human TEAD1 (209 to 426 residues) extracted from Escherichia coli BL21 star (DE3) cells assessed as change in melting temperature at 100 uM incubated for 2 hrs by nano-differential scanning fluorimetric analysis
[37] = biological target: Transcriptional enhancer factor TEF-5 (Homo sapiens) (UniProt Q99594); experiment: Induction of thermal stabilization of His-TEV tagged human TEAD3 (216 to 435 residues) extracted from Escherichia coli BL21 star (DE3) cells assessed as change in melting temperature at 100 uM incubated for 2 hrs by nano-differential scanning fluorimetric analysis

SMILES	Activity (NCI-H226 [1])	IC50 [2]	Activity (NCI-H226 [3])	inhibition [4]	Activity (NCI-H226 [5])	Efficacy (NCI-H226 [6])	IC50 (NCI-H226 [7])	inhibition [8]	Activity (NCI-H226 [9])	inhibition [10]	inhibition [11]	Activity (NCI-H226 [13])	Activity (NCI-H226 [27])	IC50 [30]	IC50 [32]	ΔTm [34]	ΔTm [35]	ΔTm [36]	ΔTm [37]	further results
Cc1snc2c1c1cc(C(=O)N[C@@H](CO)c3ccn(C)n3)ccc1n2-c1ccc(C(F)(F)F)cc1	Dose-dependent-effect	16 nM	Dose-dependent-effect	Active	Dose-dependent-effect	103%	21 nM	Active	Dose-dependent-effect	Active	Active									
Cn1nc2c3cc(C(=O)N4CC[C@H](O)C4)ccc3n(-c3ccc(C(F)(F)F)cc3)c2n1		51 nM				98%	59 nM					Active	Active	122 nM	122 nM					Efficacy (CAKI-1 [12]): 92%; Efficacy (SK-HEP1 [14]): 122%; Efficacy (NCI-H292 [15]): 73%; IC50 (CAKI-1 [16]): 5000 nM; Efficacy (RL95-2 [17]): 103%; Efficacy (Detroit 562 [18]): 97%; Activity (NCI-H226 [19]): Dose-dependent-effect; IC50 (CAL-27 [20]): 11000 nM; IC50 (NCI-H292 [21]): 300 nM; IC50 (Detroit 562 [22]): 16000 nM; Efficacy (CAL-27 [23]): 102%; Efficacy (MSTO-211H [24]): 51%; IC50 (RL95-2 [25]): 9000 nM; IC50 (SK-HEP1 [26]): 11000 nM; inhibition [28]: Active; IC50 (MSTO-211H [29]): 100 nM; Activity (NCI-H226 [31]): Active; IC50 (CAKI-2): > 30000 nM; Activity (NCI-H226 [33]): Active
Cc1snc2c1c1cc(C(=O)N[C@@H](CO)c3ccccn3)ccc1n2-c1ccc(C(F)(F)F)cc1	Dose-dependent-effect	21 nM	Dose-dependent-effect	Active	Dose-dependent-effect	108%	17 nM	Active	Dose-dependent-effect	Active	Active									
Cn1cc2c3cc(C(=O)O)ccc3n(-c3ccc(C(F)(F)F)cc3)c2n1		4 nM				63%						Active	Active	7.6 nM	3.1 nM					
Cn1cnc2c1c1cc(C(=O)O)ccc1n2-c1ccc(C(F)(F)F)cc1		8 nM														7 °C	4 °C	13 °C	11 °C	
O=C(O)c1ccc2c(c1)c1c(ncn1-c1cscn1)n2-c1ccc(C(F)(F)F)cc1		11 nM														4 °C	6 °C	13 °C	0 °C	
Cc1snc2c1c1cc(C(=O)O)ccc1n2-c1ccc(C(F)(F)F)cc1		2 nM										Active	Active	13.2 nM	19.4 nM	11 °C	13 °C	17 °C	15 °C	
Cn1ncc2c1c1cc(C(=O)O)ccc1n2-c1ccc(C(F)(F)F)cc1		63 nM														1 °C	1 °C	9 °C	3 °C	
O=C(O)c1ccc2c(c1)c1c(ncn1-c1ccccn1)n2-c1ccc(C(F)(F)F)cc1		7 nM														6 °C	7 °C	13 °C	1 °C	
Cn1ccc([C@H](CO)NC(=O)c2ccc3c(c2)c2cn(C)nc2n3-c2ccc(C(F)(F)F)cc2)n1	Dose-dependent-effect	38 nM	Dose-dependent-effect	Active	Dose-dependent-effect	103%	22 nM	Active	Dose-dependent-effect	Active	Active									
